Data published in patent US12030878B2 (BRISTOL-MYERS SQUIBB COMPANY, priority 2017, dated 2024).

How the values were obtained:
Format in all cases: cell-based
human TLR9 = biological target: T1, human TLR9 (Homo sapiens, UniProt Q9NR96); assay: TLR9 inhibition reporter assay (HEK-Blue SEAP); details: HEK-Blue cells overexpressing human TLR9, stimulated with ODN2006 5 nM, 22 hour incubation
T1 construct: host or cells: HEK-Blue cells
T1 sequence (Q9NR96 26-1032): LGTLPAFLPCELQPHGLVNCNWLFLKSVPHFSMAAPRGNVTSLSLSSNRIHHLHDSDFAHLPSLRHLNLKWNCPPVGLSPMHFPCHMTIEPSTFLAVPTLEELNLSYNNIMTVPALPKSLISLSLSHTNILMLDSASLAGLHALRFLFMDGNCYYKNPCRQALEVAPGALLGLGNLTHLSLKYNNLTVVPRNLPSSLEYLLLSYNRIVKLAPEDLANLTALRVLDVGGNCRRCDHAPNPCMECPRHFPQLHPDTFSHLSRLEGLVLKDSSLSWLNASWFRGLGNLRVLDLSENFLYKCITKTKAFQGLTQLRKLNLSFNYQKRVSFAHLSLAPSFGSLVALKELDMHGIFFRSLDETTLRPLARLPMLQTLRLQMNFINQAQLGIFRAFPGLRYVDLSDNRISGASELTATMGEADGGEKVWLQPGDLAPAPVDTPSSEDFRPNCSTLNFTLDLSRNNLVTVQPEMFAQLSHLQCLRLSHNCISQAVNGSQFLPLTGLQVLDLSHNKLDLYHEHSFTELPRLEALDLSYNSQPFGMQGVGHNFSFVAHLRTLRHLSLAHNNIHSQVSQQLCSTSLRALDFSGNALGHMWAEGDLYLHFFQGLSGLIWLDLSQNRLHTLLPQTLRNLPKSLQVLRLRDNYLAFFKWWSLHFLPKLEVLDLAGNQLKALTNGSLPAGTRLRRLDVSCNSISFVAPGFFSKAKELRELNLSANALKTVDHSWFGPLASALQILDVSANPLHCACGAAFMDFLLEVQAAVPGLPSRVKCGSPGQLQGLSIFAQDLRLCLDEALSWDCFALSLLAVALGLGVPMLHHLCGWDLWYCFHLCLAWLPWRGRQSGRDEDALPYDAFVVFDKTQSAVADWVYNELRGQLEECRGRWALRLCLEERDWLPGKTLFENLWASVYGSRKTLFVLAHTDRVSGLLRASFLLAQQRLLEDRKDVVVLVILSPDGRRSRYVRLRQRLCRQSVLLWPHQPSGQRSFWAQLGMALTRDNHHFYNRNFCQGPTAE
Method in brief: (§1)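 SEAP read-out via HEK-Blue Detection medium after 22 h at 37 °C; percent inhibition relative to agonist-plus-DMSO and known-inhibitor wells. Agonists: TLR7 gardiquimod 7.5 μM, TLR8 R848 15.9 μM, TLR9 ODN2006 5 nM. Dose range 0.05 nM–50 μM, 30 min compound pre-treatment at RT.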

human TLR7 = biological target: T2, human TLR7 (Homo sapiens, UniProt Q9NYK1); assay: TLR7 inhibition reporter assay (HEK-Blue SEAP); details: HEK-Blue cells overexpressing human TLR7, stimulated with gardiquimod 7.5 μM, 22 hour incubation
T2 construct: host or cells: HEK-Blue cells
T2 sequence (Q9NYK1 27-1049): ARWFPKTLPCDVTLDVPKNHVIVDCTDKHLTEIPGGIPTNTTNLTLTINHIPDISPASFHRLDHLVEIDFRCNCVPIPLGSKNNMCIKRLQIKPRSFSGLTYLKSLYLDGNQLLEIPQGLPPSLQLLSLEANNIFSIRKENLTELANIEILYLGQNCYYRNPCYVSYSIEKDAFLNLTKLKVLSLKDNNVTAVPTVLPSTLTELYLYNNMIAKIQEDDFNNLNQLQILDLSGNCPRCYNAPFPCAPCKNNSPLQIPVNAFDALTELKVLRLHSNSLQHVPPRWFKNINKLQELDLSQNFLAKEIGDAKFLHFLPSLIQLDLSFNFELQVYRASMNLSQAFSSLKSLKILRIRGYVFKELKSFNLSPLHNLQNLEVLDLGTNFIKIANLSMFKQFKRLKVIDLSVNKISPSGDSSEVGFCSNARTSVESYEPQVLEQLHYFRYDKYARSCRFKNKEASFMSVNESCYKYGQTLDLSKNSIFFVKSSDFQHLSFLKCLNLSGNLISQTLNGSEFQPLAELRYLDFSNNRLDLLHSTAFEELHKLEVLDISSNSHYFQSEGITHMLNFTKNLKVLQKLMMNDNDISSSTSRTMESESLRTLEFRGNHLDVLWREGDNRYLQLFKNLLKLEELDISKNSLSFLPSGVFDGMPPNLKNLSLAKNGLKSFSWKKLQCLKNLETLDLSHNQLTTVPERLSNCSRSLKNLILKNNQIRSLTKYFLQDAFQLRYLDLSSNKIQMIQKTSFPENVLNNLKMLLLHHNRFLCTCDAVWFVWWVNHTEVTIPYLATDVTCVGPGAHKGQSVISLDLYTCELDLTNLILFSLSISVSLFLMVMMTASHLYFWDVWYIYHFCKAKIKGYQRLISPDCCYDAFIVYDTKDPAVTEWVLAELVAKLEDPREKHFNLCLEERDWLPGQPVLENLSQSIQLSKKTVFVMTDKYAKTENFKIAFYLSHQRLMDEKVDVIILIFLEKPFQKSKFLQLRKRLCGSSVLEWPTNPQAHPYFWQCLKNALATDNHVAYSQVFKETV
Method in brief: as §1

human TLR8 = biological target: T3, human TLR8 (Homo sapiens, UniProt Q9NR97); assay: TLR8 inhibition reporter assay (HEK-Blue SEAP); details: HEK-Blue cells overexpressing human TLR8, stimulated with R848 15.9 μM, 22 hour incubation
T3 construct: host or cells: HEK-Blue cells
T3 sequence (Q9NR97 27-1041): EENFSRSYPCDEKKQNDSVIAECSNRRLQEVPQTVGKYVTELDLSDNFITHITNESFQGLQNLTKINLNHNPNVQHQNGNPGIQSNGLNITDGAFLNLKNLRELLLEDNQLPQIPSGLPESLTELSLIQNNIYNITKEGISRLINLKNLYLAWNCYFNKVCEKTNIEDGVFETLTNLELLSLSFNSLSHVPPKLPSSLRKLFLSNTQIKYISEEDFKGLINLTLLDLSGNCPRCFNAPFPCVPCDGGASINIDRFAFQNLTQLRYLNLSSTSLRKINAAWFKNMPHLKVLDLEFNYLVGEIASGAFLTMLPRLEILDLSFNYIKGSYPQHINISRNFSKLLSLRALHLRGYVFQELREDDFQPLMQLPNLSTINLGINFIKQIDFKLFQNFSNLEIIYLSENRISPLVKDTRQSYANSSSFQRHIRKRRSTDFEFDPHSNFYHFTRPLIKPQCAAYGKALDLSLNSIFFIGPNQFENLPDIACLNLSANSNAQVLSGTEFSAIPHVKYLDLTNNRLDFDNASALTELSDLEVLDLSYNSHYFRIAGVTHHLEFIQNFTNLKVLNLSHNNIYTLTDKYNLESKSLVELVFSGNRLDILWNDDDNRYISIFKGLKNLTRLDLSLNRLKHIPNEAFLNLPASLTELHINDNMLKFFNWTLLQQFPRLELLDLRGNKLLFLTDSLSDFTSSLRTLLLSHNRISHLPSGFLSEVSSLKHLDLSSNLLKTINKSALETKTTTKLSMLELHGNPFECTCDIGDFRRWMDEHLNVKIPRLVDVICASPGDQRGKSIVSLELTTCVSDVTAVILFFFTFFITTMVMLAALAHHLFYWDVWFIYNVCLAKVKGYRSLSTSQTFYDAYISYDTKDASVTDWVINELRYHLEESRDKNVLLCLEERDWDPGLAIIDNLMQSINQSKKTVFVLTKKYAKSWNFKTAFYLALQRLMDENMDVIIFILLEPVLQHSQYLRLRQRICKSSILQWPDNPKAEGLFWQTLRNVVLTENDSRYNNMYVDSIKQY
Method in brief: as §1

| Compound | IC50 (human TLR9) [nM] | IC50 (human TLR7) [nM] | IC50 (human TLR8) [nM] |
| --- | --- | --- | --- |
| Cc1cc(-c2[nH]c3ccc(OC4CCN(CC(C)(C)O)CC4)cc3c2C(C)C)cn2ncnc12 [Example 22, 1-(4-((3-isopropyl-2-(8-methyl-[1,2,4]triazolo[1,5-a]pyridin-6-yl)-1H-indol-5-yl)oxy)piperidin-1-yl)-2-methylpropan-2-ol] | 4410 | 6.3 | 9.2 |
| Cc1c(-c2[nH]c3ccc(OCC4CCN(C)CC4)cc3c2C(C)C)cn2cnnc2c1C [Example 54, 6-(3-isopropyl-5-((1-methylpiperidin-4-yl)methoxy)-1H-indol-2-yl)-7,8-dimethyl-[1,2,4]triazolo[4,3-a]pyridine] | 1250 | 1.5 | 3.1 |
| Cc1c(-c2[nH]c3ccc(OCC4CN(CC(C)(C)O)C4)cc3c2C(C)C)cn2cnnc2c1C [Example 28, 1-(3-(((2-(7,8-dimethyl-[1,2,4]triazolo[4,3-a]pyridin-6-yl)-3-isopropyl-1H-indol-5-yl)oxy)methyl)azetidin-1-yl)-2-methylpropan-2-ol] | 1250 | 6.1 | 21.7 |
| COc1ccc(-c2[nH]c3ccc(OCC(=O)NCC4(O)CCN(C)CC4)cc3c2C(C)C)cc1OC [Example 133, 2-((2-(3,4-dimethoxyphenyl)-3-isopropyl-1H-indol-5-yl)oxy)-N-((4-hydroxy-1-methylpiperidin-4-yl)methyl)acetamide] | 861 | 557 | 19.7 |
| Cc1cc(-c2[nH]c3ccc(OCCN(C)C)cc3c2C(C)C)ccn1 [Example 167, 2-((3-isopropyl-2-(2-methylpyridin-4-yl)-1H-indol-5-yl)oxy)-N,N-dimethylethan-1-amine] | 1920 | 69 | 3.1 |
| Cc1c(-c2[nH]c3ccc(OC4CCN(C5COC5)CC4)cc3c2C(C)C)cn(C)c(=O)c1C [Example 50, 5-(3-isopropyl-5-((1-(oxetan-3-yl)piperidin-4-yl)oxy)-1H-indol-2-yl)-1,3,4-trimethylpyridin-2(1H)-one] | > 50000 | 123 | 21.3 |
| CNC(=O)CN1CCC(Oc2ccc3[nH]c(-c4cc(C)c5ncnn5c4)c(C(C)C)c3c2)CC1 [Example 114, 2-(4-((3-isopropyl-2-(8-methyl-[1,2,4]triazolo[1,5-a]pyridin-6-yl)-1H-indol-5-yl)oxy)piperidin-1-yl)-N-methylacetamide] | 31600 | 1 | 5.1 |
| CCc1c(-c2ccc(OC)c(OC)c2)[nH]c2ccc(OCC3CCNCC3)cc12 [Example 162, 2-(3,4-dimethoxyphenyl)-3-ethyl-5-(piperidin-4-ylmethoxy)-1H-indole] | 2530 | 105 | 22.8 |
| Cc1cc(-c2[nH]c3ccc(OCc4ccc(N5CCOCC5)cc4)cc3c2C(C)C)ccn1 [Example 168, 4-(4-(((3-isopropyl-2-(2-methylpyridin-4-yl)-1H-indol-5-yl)oxy)methyl)phenyl)morpholine] | > 50000 | 4930 | 134 |
| Cc1c(-c2[nH]c3ccc(OCC4CCN(C(C)C)CC4)cc3c2C(C)C)cn2cnnc2c1C [Example 55, 6-(3-isopropyl-5-((1-isopropylpiperidin-4-yl)methoxy)-1H-indol-2-yl)-7,8-dimethyl-[1,2,4]triazolo[4,3-a]pyridine] | 1620 | 2.6 | 4.3 |
| COc1ccc(-c2[nH]c3ccc(OCC(=O)N4C[C@H]5C[C@@H]4CN5)cc3c2C(C)C)cc1OC [Example 132, 1-((1R,4R)-2,5-diazabicyclo[2.2.1]heptan-2-yl)-2-((2-(3,4-dimethoxyphenyl)-3-isopropyl-1H-indol-5-yl)oxy)ethan-1-one] | 2010 | 58.6 | 15.8 |
| Cc1cc(-c2[nH]c3ccc(OCc4ccccc4)cc3c2C(C)C)ccn1 [Example 165, 5-(benzyloxy)-3-isopropyl-2-(2-methylpyridin-4-yl)-1H-indole] | > 50000 | 5920 | 1290 |
| CCc1c(-c2ccnc(C)c2)[nH]c2ccc(OC3CCN(C(C)C)C3)cc12 (stereo not drawn) [Example 190, 3-ethyl-5-((1-isopropylpyrrolidin-3-yl)oxy)-2-(2-methylpyridin-4-yl)-1H-indole] | 1220 | 954 | 118 |
| COc1ccc(-c2[nH]c3ccc(OCC(=O)NCC(C)(C)O)cc3c2C(C)C)cc1OC [Example 150, 2-((2-(3,4-dimethoxyphenyl)-3-isopropyl-1H-indol-5-yl)oxy)-N-(2-hydroxy-2-methylpropyl)acetamide] | > 50000 | 302 | 947 |
| Cc1c(-c2[nH]c3ccc(OC4CCN(C)CC4)cc3c2C(C)C)cn2cnnc2c1C [Example 53, 6-(3-isopropyl-5-((1-methylpiperidin-4-yl)oxy)-1H-indol-2-yl)-7,8-dimethyl-[1,2,4]triazolo[4,3-a]pyridine] | 494 | 1.9 | 3.3 |
